How the values were obtained:
Type in all cases: in vivo
NON (NONcNZO10/LtJ) mice [1] = test: Insulin sensitivity model: Day 28 blood samples and body weight; conditions: for Blood HbA1c / Body Weight / Plasma FFA / Plasma Glucose / Plasma Insulin / Plasma MCP-1: mean ± SEM
Method: (§1) In an insulin sensitivity model in mice, four month old male NON (NONcNZO10/LtJ) mice in four treatment groups (treated: 25 mg/kg, 50 mg/kg and 100 mg/kg and non-treated vehicle control) were fed LabDiet® 5K20 for 28 days. The treated groups were dosed (0.1 mL, ip, bid) with a test compound from Day 1 to Day 28. The non-treated group was dosed (0.1 mL, ip, q.d.) with vehicle from Day 1 to Day 28. Body weight and blood glucose were monitored once per week and an insulin tolerance test was performed by i.p. injection of […] insulin, then fed blood glucose levels were measured at 0, 15, 30, 60, 90, and 120 min after insulin administration. The insulin tolerance test blood glucose levels at the time points the sample were taken after insulin administration are shown in Table 5. After sacrifice on Day 28, blood samples were collected to measure HbA1c, plasma levels of glucose, plasma insulin, FFA (free fatty acids) and MCP-1. Blood glucose levels were measured using a Glucometer. MCP-1 and insulin were measured by ELISA. Plasma glucose and FFA were measured using Weko kits. The statistical analysis for p value was performed using the program Prism (Graphpad, Monrovia, Calif.) with the Student t-test (unpaired). All data are presented as the mean ± standard error of the mean (SEM).

NON (NONcNZO10/LtJ) mice [2] = test: Insulin sensitivity model: insulin tolerance test; conditions: for Blood Glucose: mean ± SEM
Method: as §1, with “5.” for “5. After sacrifice on Day 28, blood samples were collected to measure HbA1c, plasma levels of glucose, plasma insulin, FFA (free fatty acids) and MCP-1.”

DIO mice = test: Diet induced obesity (DIO) model, treatment arm TA1 (high fat diet); conditions: for Body Weight Gain / Change in Fat Mass / Change in Lean Mass / Change in Water / Food Intake / Plasma MCP-1: TA1 DIO mice, high fat diet, mean ± SEM
Method: (§2) In a diet induced obesity (DIO) model in mice, two treatment arms of mice were tested. In the first treatment arm (TA1), DIO mice in four treatment groups (treated: 25 mg/kg, 50 mg/kg and 100 mg/kg and non-treated vehicle control) were fed a high fat diet. In the second treatment arm (TA2), lean mice in two treatment groups (treated: 100 mg/kg and non-treated vehicle control) were fed a regular chow diet. After 7 days acclimation to the diet, the treated groups in each arm were dosed (0.1 mL, ip, bid) with a test compound from Day 1 to Day 28 of the study. After 7 days acclimation to the diet, the non-treated groups in each arm were dosed (0.1 mL, ip, bid) with vehicle from Day 1 to Day 28 of the study. Body weight was monitored twice per week and on Day 28. After sacrifice, blood glucose, body weight, body mass, serum MCP-1 and insulin levels were also recorded. MCP-1 was measured by ELISA. The statistical analysis for p value was performed using the program Prism (Graphpad, Monrovia, Calif.) with the Student t-test (unpaired). All data are presented as the mean ± standard error of the mean (SEM).

lean mice = test: Diet induced obesity model, treatment arm TA2 (lean mice, regular chow diet); conditions: 100 mg/kg ip bid Day 1-28, mean ± SEM
Method: as §2

O=C(O)[C@H](C1CCN(C(=O)/C=C/c2cc(F)c(F)c(F)c2)CC1)N1CCC(c2c[nH]c3ccccc23)CC1 [(S)-{[4-(1H-indol-3-yl)-piperidin-1-yl]}-{1-[(2E)-3-(3,4,5-trifluoro-phenyl)-acryloyl]-piperidin-4-yl}-acetic acid]
Blood HbA1c (NON (NONcNZO10/LtJ) mice [1]; Day 28, 25 mg/kg ip bid): 6.6 ± 0.5%
Body Weight (NON (NONcNZO10/LtJ) mice [1]; Day 28, 25 mg/kg ip bid): 45.2 ± 1.4 g
Plasma FFA (NON (NONcNZO10/LtJ) mice [1]; Day 28, 25 mg/kg ip bid): 1.2 ± 0.4 mM
Plasma Glucose (NON (NONcNZO10/LtJ) mice [1]; Day 28, 25 mg/kg ip bid): 413 ± 52 mg/dL
Plasma Insulin (NON (NONcNZO10/LtJ) mice [1]; Day 28, 25 mg/kg ip bid): 5.8 ± 0.7 ng/mL
Plasma MCP-1 (NON (NONcNZO10/LtJ) mice [1]; Day 28, 25 mg/kg ip bid): 56.6 ± 3.0 pg/mL
Blood HbA1c (NON (NONcNZO10/LtJ) mice [1]; Day 28, 50 mg/kg ip bid): 6.7 ± 0.7%
Body Weight (NON (NONcNZO10/LtJ) mice [1]; Day 28, 50 mg/kg ip bid): 42.6 ± 0.8 g
Plasma FFA (NON (NONcNZO10/LtJ) mice [1]; Day 28, 50 mg/kg ip bid): 1.0 ± 0.2 mM
Plasma Glucose (NON (NONcNZO10/LtJ) mice [1]; Day 28, 50 mg/kg ip bid): 358 ± 58 mg/dL
Plasma Insulin (NON (NONcNZO10/LtJ) mice [1]; Day 28, 50 mg/kg ip bid): 5.4 ± 0.9 ng/mL
Plasma MCP-1 (NON (NONcNZO10/LtJ) mice [1]; Day 28, 50 mg/kg ip bid): 177.4 ± 63.4 pg/mL
Blood HbA1c (NON (NONcNZO10/LtJ) mice [1]; Day 28, 100 mg/kg ip bid): 5.0 ± 0.2 %
Body Weight (NON (NONcNZO10/LtJ) mice [1]; Day 28, 100 mg/kg ip bid): 43.6 ± 0.9 g
Plasma FFA (NON (NONcNZO10/LtJ) mice [1]; Day 28, 100 mg/kg ip bid): 0.6 ± 0.1 mM
Plasma Glucose (NON (NONcNZO10/LtJ) mice [1]; Day 28, 100 mg/kg ip bid): 190 ± 15 mg/dL
Plasma Insulin (NON (NONcNZO10/LtJ) mice [1]; Day 28, 100 mg/kg ip bid): 7.9 ± 1.1 ng/mL
Plasma MCP-1 (NON (NONcNZO10/LtJ) mice [1]; Day 28, 100 mg/kg ip bid): 555.6 ± 104.5 pg/mL
HbA1c levels (NON (NONcNZO10/LtJ) mice [1]; NON mice): significantly reduced
body weight between treated and non-treated groups (NON (NONcNZO10/LtJ) mice [1]; NON mice): without a significant difference
Blood Glucose (NON (NONcNZO10/LtJ) mice [2]; Day 7, 25 mg/kg ip bid, 0 min after insulin): 333 ± 44 mg/dL
Blood Glucose (NON (NONcNZO10/LtJ) mice [2]; Day 7, 25 mg/kg ip bid, 15 min after insulin): 213 ± 40 mg/dL
Blood Glucose (NON (NONcNZO10/LtJ) mice [2]; Day 7, 25 mg/kg ip bid, 30 min after insulin): 157 ± 27 mg/dL
Blood Glucose (NON (NONcNZO10/LtJ) mice [2]; Day 7, 25 mg/kg ip bid, 60 min after insulin): 146 ± 21 mg/dL
Blood Glucose (NON (NONcNZO10/LtJ) mice [2]; Day 7, 25 mg/kg ip bid, 90 min after insulin): 146 ± 18 mg/dL
Blood Glucose (NON (NONcNZO10/LtJ) mice [2]; Day 7, 25 mg/kg ip bid, 120 min after insulin): 164 ± 23 mg/dL
Blood Glucose (NON (NONcNZO10/LtJ) mice [2]; Day 7, 50 mg/kg ip bid, 0 min after insulin): 325 ± 54 mg/dL
Blood Glucose (NON (NONcNZO10/LtJ) mice [2]; Day 7, 50 mg/kg ip bid, 15 min after insulin): 213 ± 51 mg/dL
Blood Glucose (NON (NONcNZO10/LtJ) mice [2]; Day 7, 50 mg/kg ip bid, 30 min after insulin): 136 ± 20 mg/dL
Blood Glucose (NON (NONcNZO10/LtJ) mice [2]; Day 7, 50 mg/kg ip bid, 60 min after insulin): 115 ± 13 mg/dL
Blood Glucose (NON (NONcNZO10/LtJ) mice [2]; Day 7, 50 mg/kg ip bid, 90 min after insulin): 115 ± 8 mg/dL
Blood Glucose (NON (NONcNZO10/LtJ) mice [2]; Day 7, 50 mg/kg ip bid, 120 min after insulin): 142 ± 8 mg/dL
Blood Glucose (NON (NONcNZO10/LtJ) mice [2]; Day 7, 100 mg/kg ip bid, 0 min after insulin): 230 ± 22 mg/dL
Blood Glucose (NON (NONcNZO10/LtJ) mice [2]; Day 7, 100 mg/kg ip bid, 15 min after insulin): 141 ± 16 mg/dL
Blood Glucose (NON (NONcNZO10/LtJ) mice [2]; Day 7, 100 mg/kg ip bid, 30 min after insulin): 105 ± 9 mg/dL
Blood Glucose (NON (NONcNZO10/LtJ) mice [2]; Day 7, 100 mg/kg ip bid, 60 min after insulin): 82 ± 8 mg/dL
Blood Glucose (NON (NONcNZO10/LtJ) mice [2]; Day 7, 100 mg/kg ip bid, 90 min after insulin): 83 ± 7 mg/dL
Blood Glucose (NON (NONcNZO10/LtJ) mice [2]; Day 7, 100 mg/kg ip bid, 120 min after insulin): 98 ± 8 mg/dL
Blood Glucose (NON (NONcNZO10/LtJ) mice [2]; Day 21, 25 mg/kg ip bid, 0 min after insulin): 465 ± 34 mg/dL
Blood Glucose (NON (NONcNZO10/LtJ) mice [2]; Day 21, 25 mg/kg ip bid, 15 min after insulin): 367 ± 51 mg/dL
Blood Glucose (NON (NONcNZO10/LtJ) mice [2]; Day 21, 25 mg/kg ip bid, 30 min after insulin): 247 ± 53 mg/dL
Blood Glucose (NON (NONcNZO10/LtJ) mice [2]; Day 21, 25 mg/kg ip bid, 60 min after insulin): 209 ± 56 mg/dL
Blood Glucose (NON (NONcNZO10/LtJ) mice [2]; Day 21, 25 mg/kg ip bid, 90 min after insulin): 198 ± 51 mg/dL
Blood Glucose (NON (NONcNZO10/LtJ) mice [2]; Day 21, 25 mg/kg ip bid, 120 min after insulin): 237 ± 43 mg/dL
Blood Glucose (NON (NONcNZO10/LtJ) mice [2]; Day 21, 50 mg/kg ip bid, 0 min after insulin): 434 ± 71 mg/dL
Blood Glucose (NON (NONcNZO10/LtJ) mice [2]; Day 21, 50 mg/kg ip bid, 15 min after insulin): 303 ± 56 mg/dL
Blood Glucose (NON (NONcNZO10/LtJ) mice [2]; Day 21, 50 mg/kg ip bid, 30 min after insulin): 186 ± 32 mg/dL
Blood Glucose (NON (NONcNZO10/LtJ) mice [2]; Day 21, 50 mg/kg ip bid, 60 min after insulin): 162 ± 37 mg/dL
Blood Glucose (NON (NONcNZO10/LtJ) mice [2]; Day 21, 50 mg/kg ip bid, 90 min after insulin): 168 ± 47 mg/dL
Blood Glucose (NON (NONcNZO10/LtJ) mice [2]; Day 21, 50 mg/kg ip bid, 120 min after insulin): 214 ± 49 mg/dL
Blood Glucose (NON (NONcNZO10/LtJ) mice [2]; Day 21, 100 mg/kg ip bid, 0 min after insulin): 332 ± 38 mg/dL
Blood Glucose (NON (NONcNZO10/LtJ) mice [2]; Day 21, 100 mg/kg ip bid, 15 min after insulin): 247 ± 28 mg/dL
Blood Glucose (NON (NONcNZO10/LtJ) mice [2]; Day 21, 100 mg/kg ip bid, 30 min after insulin): 152 ± 15 mg/dL
Blood Glucose (NON (NONcNZO10/LtJ) mice [2]; Day 21, 100 mg/kg ip bid, 60 min after insulin): 144 ± 21 mg/dL
Blood Glucose (NON (NONcNZO10/LtJ) mice [2]; Day 21, 100 mg/kg ip bid, 90 min after insulin): 158 ± 28 mg/dL
Blood Glucose (NON (NONcNZO10/LtJ) mice [2]; Day 21, 100 mg/kg ip bid, 120 min after insulin): 228 ± 43 mg/dL
blood glucose control (NON (NONcNZO10/LtJ) mice [2]; NON mice): improved
insulin sensitivity (NON (NONcNZO10/LtJ) mice [2]; NON mice): increased
body fat mass gain (DIO mice; DIO model in mice): significantly reduced
lean mass (DIO mice; DIO model in mice): no change
weight gain (DIO mice; DIO model in mice): significantly reduced
Body Weight Gain (DIO mice; 25 mg/kg ip bid Day 1-28): 3.8 ± 1.2 g
Change in Fat Mass (DIO mice; 25 mg/kg ip bid Day 1-28): 0.9 ± 0.7 g
Change in Lean Mass (DIO mice; 25 mg/kg ip bid Day 1-28): 3.1 ± 0.9 g
Change in Water (DIO mice; 25 mg/kg ip bid Day 1-28): 2.8 ± 0.8 g
Food Intake (DIO mice; 25 mg/kg ip bid Day 1-28): 14.0 ± 1.6 g/7 days
Plasma MCP-1 (DIO mice; 25 mg/kg ip bid Day 1-28): 69.2 ± 5.6 pg/mL
Body Weight Gain (DIO mice; 50 mg/kg ip bid Day 1-28): 3.4 ± 1.1 g
Change in Fat Mass (DIO mice; 50 mg/kg ip bid Day 1-28): 0.4 ± 0.6 g
Change in Lean Mass (DIO mice; 50 mg/kg ip bid Day 1-28): 4.9 ± 0.9 g
Change in Water (DIO mice; 50 mg/kg ip bid Day 1-28): 4.5 ± 0.8 g
Food Intake (DIO mice; 50 mg/kg ip bid Day 1-28): 13.5 ± 1.8 g/7 days
Plasma MCP-1 (DIO mice; 50 mg/kg ip bid Day 1-28): 98.3 ± 7.6 pg/mL
Body Weight Gain (DIO mice; 100 mg/kg ip bid Day 1-28): 2.3 ± 1.8 g
Change in Fat Mass (DIO mice; 100 mg/kg ip bid Day 1-28): 0.2 ± 0.3 g
Change in Lean Mass (DIO mice; 100 mg/kg ip bid Day 1-28): 3.4 ± 0.3 g
Change in Water (DIO mice; 100 mg/kg ip bid Day 1-28): 2.9 ± 0.3 g
Food Intake (DIO mice; 100 mg/kg ip bid Day 1-28): 14.5 ± 3.6 g/7 days
Plasma MCP-1 (DIO mice; 100 mg/kg ip bid Day 1-28): 503.5 ± 69.7 pg/mL
Body Weight Gain (lean mice): 2.3 ± 1.5 g
Change in Fat Mass (lean mice): 0.6 ± 0.3 g
Change in Lean Mass (lean mice): 3.4 ± 0.8 g
Change in Water (lean mice): 3.1 ± 0.7 g
Food Intake (lean mice): 22.8 ± 1.7 g/7 days
Plasma MCP-1 (lean mice): 646.8 ± 112.5 pg/mL
